Columns and labels:
HepG2 cells [1] = assay: Subcutaneous tumor model; type: in vivo; details: nude mice; 2.0, 1.0 or 0.5 mg/kg oral
Source text: In the process of dissolving these pure drug powders, stirring, vortexing, and ultrasonic vibration were used to assist dissolution.
The HCC cells were transfected with plasmids and then injected into the subcutaneous position of nude mice (the HepG2 cells were transfected with TPX2 for TPX2 overexpression and the siRNA of TPX2 for TPX2 knockdown). After the cells in the bottom of the dish were digested with trypsin, the cells were gently mixed with sterilized PBS to prepare a cell suspension. The resulting cell suspension was directly injected subcutaneously into nude mice using a pre-sterilized disposable medical syringe with a capacity of 1 ml. After that step, animal status was observed every day, and the tumor tissue was collected after 4 to 6 weeks of growth to detect the tumor volume (using a Vernier caliper to measure the long and short axes of the tumor tissue after which the tumor volume was calculated according to the formula: short axis × short axis × long axis/2) and weight (accurately weighed with a 1/10000th precision balance). Finally, the tumor tissue was ground with liquid nitrogen, and qPCR was then used to measure the mRNA expression level of the corresponding genes. The intrahepatic tumor model and the in vivo imaging of small-animals-related experiments were performed according to our previous publications. […]

[2] = Blood concentration assay of sorafenib, mice bearing MHCC97-L tumours; type: in vivo; details: nude, mouse, plasma, 2 mg/kg, 2 mg/kg oral
Description: Table notes: After overexpression of TPX2 in MHCC97-L cells, the cells were inoculated with nude mice to form subcutaneous tumour tissue (the volume of tumour tissue was approximately 1 g) and then given 2 mg/kg via oral administration. After overexpression of TPX2 in MHCC97-L cells, the cells were inoculated into nude mice to form subcutaneous tumour tissue and then in situ liver tumour tissue was established. 2mg/kg via oral administration was given to nude mice. Thereafter, blood levels of sorafenib were measured.

[3] = Blood concentration assay of sorafenib, mice bearing MHCC97-H tumours; type: in vivo; details: nude, mouse, plasma, 2 mg/kg, 2 mg/kg oral
Description: Table notes: After knockdown of TPX2 in MHCC97-H cells, the cells were inoculated with nude mice to form subcutaneous tumour tissue (the volume of tumour tissue was approximately 1 g) and then given 2 mg/kg via oral administration. After knockdown TPX2 in MHCC97-H cells, the cells were inoculated into nude mice to form subcutaneous tumour tissue and then in situ liver tumour tissue was established. 2mg/kg via oral administration was given to nude mice. Thereafter, blood levels of sorafenib were measured.

MHCC97-L cells = assay: MTT cell survival examination; type: cell-based; details: Homo sapiens, MHCC97L, 48 h, median (95% CI)
Description: (§1) In the process of dissolving these pure drug powders, stirring, vortexing, and ultrasonic vibration were used to assist dissolution [17, 18]. After a drug was fully dissolved, Dulbecco’s modified Eagle’s medium (DMEM) without fetal bovine serum (FBS) was used to dilute the drug dissolved in DMSO. For doxorubicin, we used DMEM without FBS to dissolve the drug. When performing cell viability experiments (tetrazolium [MTT] assays), these drugs were diluted.
(§2) The antitumor activity of antitumor drugs injuring HCC cells was examined by using MTT assay. After culturing the HCC cells, transfection experiments were performed, and the cells were then seeded in 96-well cell culture plates (about 8000 cells per well). […] After the cells were treated with the drug for about 48 h, a dose of […] tetrazolium (MTT) reagent was added, and cells with the MTT reagent were incubated for 5 to 6 h. After incubation with the MTT was complete, all liquid in the 96-well cell culture plate was discarded, and about 100 μl of DMSO was added to each well to dissolve the cell samples. During the process of lysing the cell samples, the cell culture plate was shaken for 15 minutes to completely lyse the cells. After the lysis step was complete, the cell culture plate was centrifuged at 12,000 rpm at 4 °C, and the supernatant was collected for evaluation.
(§3) All statistical analyses in the presence work were performed using the GraphPad 8.0 (GraphPad Software Corporation, Armonk, NY, USA). […] For the survival analysis data, the survival curves were analyzed by the log-rank (Mantel–Cox) test to detect the P-value of the survival curve, the median survival time, and the 95% confidence interval (CI). For the co-relationship analysis, the data were analyzed by linear regression to determine the overall trend of a group of data points. […] If the slope was positive, the horizontal coordinate was positively related to the vertical coordinate, and if the slope was negative, the horizontal coordinate was negatively related to the vertical coordinate. For the multi-grouped data, the ordinary one-way analysis of variance (ANOVA) and multiple comparison methods were used. An ANOVA was used to examine whether any difference between groups could be detected. The multiple comparisons (t-test) was used to detect differences between pairs of data.

MHCC97-H cells = assay: MTT cell survival examination; type: cell-based; details: Homo sapiens, MHCC97H, 48 h
Description: as §1, §2, §3

HepG2 cells [4] = assay: MTT cell survival examination; type: cell-based; details: Homo sapiens, HepG2, 48 h
Description: as §1, §2, §3

[5] = oral, Subcutaneous MHCC97-L Control tumour
[6] = oral, Subcutaneous MHCC97-L TPX2 tumour
[7] = po, intrahepatic MHCC97-L Control tumour
[8] = po, intrahepatic MHCC97-L TPX2 tumour
[9] = oral, Subcutaneous MHCC97-H Control tumour
[10] = oral, Subcutaneous MHCC97-H siTPX2 tumour
[11] = po, intrahepatic MHCC97-H Control tumour
[12] = po, intrahepatic MHCC97-H siTPX2 tumour

CNC(=O)c1cc(Oc2ccc(NC(=O)Nc3ccc(Cl)c(C(F)(F)F)c3)cc2)ccn1 [sorafenib]
subcutaneous growth of HepG2 cells (tumor volumes/weights) (HepG2 cells [1]): inhibited the subcutaneous growth of HepG2 cells in a dose-dependent manner
concentration at 2 h [2, 5]: 17.4 ± 9.73 ng/mL
concentration at 2 h [2, 6]: 13.9 ± 6.77 ng/mL
concentration at 8 h [2, 5]: 142 ± 26.8 ng/mL
concentration at 8 h [2, 6]: 122 ± 27.9 ng/mL
concentration at 20 h [2, 5]: 112 ± 30.5 ng/mL
concentration at 20 h [2, 6]: 99.8 ± 19.6 ng/mL
concentration at 40 h [2, 5]: 44.4 ± 16.9 ng/mL
concentration at 40 h [2, 6]: 29.6 ± 17.2 ng/mL
concentration at 2 h [2, 7]: 17.9 ± 8.39 ng/mL
concentration at 2 h [2, 8]: 18.1 ± 9.63 ng/mL
concentration at 8 h [2, 7]: 138 ± 27.9 ng/mL
concentration at 8 h [2, 8]: 144 ± 30 ng/mL
concentration at 20 h [2, 7]: 117 ± 29.9 ng/mL
concentration at 20 h [2, 8]: 115 ± 29.9 ng/mL
concentration at 40 h [2, 7]: 51.6 ± 17.2 ng/mL
concentration at 40 h [2, 8]: 41.4 ± 19.1 ng/mL
concentration at 2 h [3, 9]: 23.3 ± 16.6 ng/mL
concentration at 2 h [3, 10]: 33.2 ± 19.4 ng/mL
concentration at 8 h [3, 9]: 152 ± 25.4 ng/mL
concentration at 8 h [3, 10]: 170 ± 32.3 ng/mL
concentration at 20 h [3, 9]: 123 ± 23.6 ng/mL
concentration at 20 h [3, 10]: 142 ± 21.4 ng/mL
concentration at 40 h [3, 9]: 63 ± 14.5 ng/mL
concentration at 40 h [3, 10]: 77.5 ± 23.5 ng/mL
concentration at 2 h [3, 11]: 22.5 ± 11.8 ng/mL
concentration at 2 h [3, 12]: 24.3 ± 14.2 ng/mL
concentration at 8 h [3, 11]: 146 ± 28.7 ng/mL
concentration at 8 h [3, 12]: 152 ± 22.1 ng/mL
concentration at 20 h [3, 11]: 120 ± 32 ng/mL
concentration at 20 h [3, 12]: 127 ± 31.2 ng/mL
concentration at 40 h [3, 11]: 46.8 ± 31.9 ng/mL
concentration at 40 h [3, 12]: 57.8 ± 27.6 ng/mL
IC50 (MHCC97-L cells; Control): 1860 nM
IC50 (MHCC97-L cells; TPX2 overexpression): 4840 nM
IC50 (MHCC97-H cells; Control, median (95% CI)): 1160 nM
IC50 (MHCC97-H cells; siTPX2, median (95% CI)): 470 nM
IC50 (HepG2 cells [4]; HepG2, Control, median (95% CI)): 1270 nM
IC50 (HepG2 cells [4]; HepG2, TPX2 overexpression, median (95% CI)): 4680 nM
IC50 (HepG2 cells [4]; HepG2, siTPX2, median (95% CI)): 500 nM

From article PMC9883482, “TPX2 enhances the transcription factor activation of PXR and enhances the resistance of hepatocellular carcinoma cells to antitumor drugs” (Cell Death & Disease, 2023)
